# Data from patent publication US6425888B1, “Ocular treatment device” (R. P. Scherer Corporation, priority 1994, dated 2002).
# Structures can show the parent of a compound that is named as a salt.
# Tested on: rabbits
# Assay: Miotic response (pupil diameter) of rabbits after a single spray from the blister crushing device of FIG. 18
# Type: in vivo, rabbit
# Details: left eye, mean of 5 rabbits
# Text: The device of FIG. 18 was used in a study of the ocular response of rabbits to treatment according to the invention. The rabbits selected for the study were allowed to acclimatise for 4-5 days prior to treatment. They were subjected to manual restraining for 2 days prior to the study to condition them to the procedures involved in dosing. A device of the kind illustrated in FIG. 18 was then used to administer a single spray of isotonic 2% Pilocarpine hydrochloride (Pilocarpine HCl) solution to the corneal surface of the left eve of each of 5 rabbits, the right eyes remaining undosed. The following settings were used: 100 μm nozzle diameter 2.5 cm distance between nozzle tip and animal eye Sprays targeted towards the centre of the cornea of the animal eye The miotic response (reduction in pupil diameter) at various intervals following the application of the pilocarpine HCl solution was monitored under constant illumination using video photography. The pupil diameter of the left eye was expressed in proportion to the diameter of a fixed reference aperture situated at an equal distance from the video camera. The actual diameter was then calculated from the known diameter of the reference aperture.
compound,measurement,setting,value
"CC[C@@H]1C(=O)OC[C@@H]1Cc1cncn1C [Pilocarpine HCl, Pilocarpine hydrochloride]",Pupil Diameter,+15 min after dose,6.7 mm
same,Pupil Diameter,+30 min after dose,6.8 mm
same,Pupil Diameter,+45 min after dose,6.9 mm
same,Pupil Diameter,+1 hr after dose,6.8 mm
same,Pupil Diameter,+1.5 hr after dose,6.9 mm
same,Pupil Diameter,+2 hr after dose,7.3 mm
same,Pupil Diameter,+2.5 hr after dose,7.8 mm
same,Pupil Diameter,+3 hr after dose,7.9 mm
same,Pupil Diameter,+3.5 hr after dose,8.0 mm
same,Pupil Diameter,+4 hr after dose,7.8 mm
same,Pupil Diameter,"Dose (0 min), single spray of isotonic 2% solution to cornea",7.8 mm
